We go through 15 molecules from US20260027243A1, “AMPHIPHILIC COMPOUNDS FOR ATTENUATING NEUROTOXICITY OF AMYLOID-beta OLIGOMERS AND DIAGNOSTIC METHODS” (THE BOARD OF TRUSTEES OF THE UNIVERSITY OF ILLINOIS, priority 2022, published 2026).

One data set addresses Aβ oligomers. As to conditions: cited from earlier work.
A further data set deals with T1, Aβ42 fibrils (Homo sapiens, UniProt P05067).
T1 construct: commercial Aβ42 monomer powder (from GL biochem); purchased GL biochem
In words: Fluorescence saturation binding assay with Aβ42 fibrils. As to conditions: read-out: Kd, Fibrils. The method, then: Preparation of the Aβ42 Fibrils and Aβ42 Oligomers. Aβ42 fibrils: 1 mg of commercial Aβ42 monomer powder (from GL biochem) was dissolved in 1 mL 1,1,1,3,3,3-hexafluoro-2-propanol (HFIP) at room temperature and incubated for 1 h. The resulting solution was divided equally into two Eppendorf tubes. The solution in each Eppendorf tube containing 0.5 mg Aβ42 monomer was then evaporated overnight and dried by vacuum centrifuge to generate monomeric films. […] Aβ42 fibrils solution was prepared by dissolving the 0.5 mg monomeric films in 1.1 mL PBS buffer (with final DMSO concentration less than 1%) and stirring at 37° C. for 3 days.
(§1) In Vitro Saturation Binding Studies with Aβ42 Fibrils and Aβ42 Oligomers. To a solution of increasing concentrations of compounds, a fixed concentration of the generated aggregated Aβ42 fibrils or Aβ42 oligomers solutions (5 to 15 NM) was added to yield a total volume of 100 μL. Nonspecific binding was determined […]. The mixture was incubated for 15 min at room temperature. All fluorescence data were obtained on a SpectraMax M2e plate reader (Molecular Devices). The fluorescent intensity was measured at the corresponding emission wavelength of each compound, and the Kd binding curves were generated by GraphPad Prism 8.0 with one site-specific binding model. Equation: Y=Bmax*X/(Kd+X).

Data set [1] in a line: Log D by octanol-PBS partition. As to conditions: DCM compounds. It is filed as physicochemical. The method, then: Log D measurements. The Log D value was measured following a published procedure using slight modifications. In general, compounds in 0.5 mL octanol was subjected to partition with 0.5 mL octanol-saturated PBS. The whole mixture was stirred vigorously for 5 min, and centrifuged at 2,000 rpm for 5 min. The top octanol layer was separated for later fluorescence measurement. The remaining PBS layer was partitioned with 0.5 mL PBS-saturated octanol, and the second top octanol layer was then separated after vigorous stirring and centrifuging at 2,000 rpm for another 5 min. The two octanol layers' fluorescence spectra were recorded. The log D value was calculated by the fluorescence intensity ratio at the compounds' emission wavelength for the above two octanol extractions.

A further data set deals with T2, Aβ42 oligomers (Homo sapiens, UniProt P05067).
T2 construct: commercial Aβ42 monomer powder (from GL biochem); purchased GL biochem
T2 sequence (P05067 672-713 limits assumed): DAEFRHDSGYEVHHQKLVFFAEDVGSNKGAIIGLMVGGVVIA
The data set is described as follows: Fluorescence saturation binding assay with Aβ42 oligomers. As to conditions: for Kd: read-out: Kd, Oligomers; for binding affinity to oligomers compared with fibrils (Kd comparison): amphiphilic ZY compounds. The procedure:
Aβ42 oligomers: The 0.5 mg monomeric films were dissolved in 1.1 mL PBS buffer (with final DMSO concentration less than 1%) and incubated at 4° C. overnight. The resulting solution was then centrifuged at 3000 rpm for 15 mins to remove the insoluble aggregates. The clear supernatant was then used for the following experiments. Aβ42 oligomers concentration was checked by measuring the absorbance of the supernatant at 280 nm.
as §1

The subject of data set [2] is Cu^2+-Aβ42-induced toxicity in Neuro2A cells. In words: Cu2+-Aβ42-induced toxicity, Alamar blue cell viability. It is filed as cell-based, mouse. As to conditions: [Aβ42]=40 μM, [Cu^2+]=40 μM, compound 10 μM (ZY-12-OMe 5 μM). The procedure: FIG. 6. Cell viability results upon incubation of Neuro2A cells with monomeric Aβ42 in the presence or absence of metal ions and amphiphilic compounds. Concentrations: [Aβ42]=40 μM, [Cu^2+]=40 μM, [ZY-12-MT]=[ZY-15-OMe]=[ZY-15-MT]=[ZY-17-MT]=[ZY-5-OMe]=[ZY-5-MT]=[ZY-5-DT]=10 μM, [ZY-12-OMe]=5 μM. The error bars represent the standard deviation from five independent experiments, and the statistical analysis was evaluated according to one-way ANOVA (*p<0.05).
For the Cu^2+-Ap-induced toxicity studies, cells treated were monomeric Aβ42, Cu^2+, monomeric Aβ42+Cu^2+, and monomeric Aβ42+Cu^2++ compounds, respectively. After 40 h incubation, Alamar Blue solution (10 μL) was added, and the cells were incubated for another 90 min at 37° C. The fluorescence intensity of each well was measured at 590 nm (excitation wavelength=560 nm).
On the technique in general: Alamar Blue is a resazurin reagent that responds to reducing activity.

For data set [3], the system named is mouse neuroblastoma N2a cells. In words: Alamar blue cytotoxicity in N2a cells. It is filed as cell-based. The note with it: for relative cytotoxicity: comparison among compounds. The procedure:
Cytotoxicity Studies. Alamar Blue assay was chosen for the cytotoxicity studies. Mouse neuroblastoma Neuro2A (N2A) cells were grown with DMEM/10% FBS in a petri dish at 37° C. in a humidified atmosphere with 5% CO2. Then N2A cells were seeded in a 96-well plate (1.0×10^4/well). After 24 h incubation, cell media was changed to DMEM/N-2, and N2A cells were incubated for another 1 h. Then the cells were treated with different concentrations of compounds for 40 h, Alamar Blue solution (10 μL) was added, and the cells were incubated for another 90 min at 37° C. The fluorescence intensity of each well was measured at 590 nm (excitation wavelength=560 nm).

The structures appear in SMILES notation. Like-named read-outs stand apart in the source and are kept apart here.

T1 sequence (P05067 672-713 limits assumed): as above

With `CCOc1cccc(C=Cc2cc(C)c3n2[B-](F)(F)[N+]2=C(CCC(=O)OCC(Cl)(Cl)Cl)C=CC2=C3)c1O` [BD-Oligo], the Kd at Aβ oligomers (reported oligomer-selective probes) is 400 nM.
In the case of `CCN(CC)c1ccc(/C=C/C2=[O+][B-](F)(F)OC(/C=C/c3ccc(N(CC)CC)nc3)=C2CCCOc2c(C)cccc2C)cn1` [CRANAD-102], on Aβ oligomers (reported values), the Kd was 7.5 nM.
On to `CN1CCN(C)CCN(Cc2cc(/C=C/C3=CC(=C(C#N)C#N)c4ccccc4O3)cc(CN3CCN(C)CCN(C)CC3)c2O)CC1` [DCM-OH-1-DT, (E)-2-(2-(3,5-bis((4,7-dimethyl-1,4,7-triazonan-1-yl)methyl)-4-hydroxystyryl)-4H-chromen-4-ylidene)malononitrile], for which the Kd at Aβ42 fibrils (Table 3, DCM compounds) amounted to 1850 ± 190 nM; on Aβ42 oligomers (Table 3, DCM compounds), 2880 ± 540 nM. Also, in data set [1], the logD is 1.51 ± 0.018.
For `CN1CCN(C)CCN(Cc2cc(/C=C/C3=CC(=C(C#N)C#N)c4ccccc4O3)ccc2O)CC1` [DCM-OH-1-MT, (E)-2-(2-(3-((4,7-dimethyl-1,4,7-triazonan-1-yl)methyl)-4-hydroxystyryl)-4H-chromen-4-ylidene)malononitrile], in that order: 580 ± 70 nM, 670 ± 190 nM and 1.65 ± 0.06.
Regarding `N#CC(C#N)=C1C=C(/C=C/c2ccc(O)cc2)Oc2ccccc21` [DCM-OH-1], the logD in data set [1] turned out to be 1 ± 0.04.
For the molecule `CN1CCN(C)CCN(Cc2cc(/C=C/c3ccc(-c4ccc(N(C)C)cc4)s3)cc(CN3CCN(C)CCN(C)CC3)c2O)CC1` [ZY-5-DT, (E)-2,6-bis((4,7-dimethyl-1,4,7-triazonan-1-yl)methyl)-4-(2-(5-(4-(dimethylamino)phenyl)thiophen-2-yl)vinyl)phenol], the dissociation constant (Kd) on Aβ42 fibrils (Table 1, amphiphilic compounds) was 1670 ± 190 nM; on Aβ42 oligomers (Table 1, amphiphilic compounds), 2090 ± 360 nM.
With `CN1CCN(C)CCN(Cc2cc(/C=C/c3ccc(-c4ccc(N(C)C)cc4)s3)ccc2O)CC1` [ZY-5-MT, (E)-2-((4,7-dimethyl-1,4,7-triazonan-1-yl)methyl)-4-(2-(5-(4-(dimethylamino)phenyl)thiophen-2-yl)vinyl)phenol], the Kd stood at 1820 ± 130 nM on Aβ42 fibrils (Table 1, amphiphilic compounds) and 460 ± 60 nM at Aβ42 oligomers (Table 1, amphiphilic compounds). Further, the “binding affinity to oligomers compared with fibrils (Kd comparison)” value on Aβ42 oligomers was “higher binding affinity to oligomers over fibrils”. Besides, on Aβ42 oligomers (ratio of Kd values), the “selectivity to Aβ oligomers over Aβ fibrils” value was determined as 3.9 times.
`COc1cc(/C=C/c2ccc(-c3ccc(N(C)C)cc3)s2)cc(CN2CCN(C)CCN(C)CC2)c1O` [ZY-5-OMe, (E)-2-((4,7-dimethyl-1,4,7-triazonan-1-yl)methyl)-4-(2-(5-(4-(dimethylamino)phenyl)thiophen-2-yl)vinyl)-6-methoxyphenol]: the dissociation constant (Kd) amounted to 680 ± 100 nM on Aβ42 fibrils (Table 1, amphiphilic compounds) and 1040 ± 150 nM at Aβ42 oligomers (Table 1, amphiphilic compounds). Besides, in data set [2], the “effect on cell viability under Cu^2+-Aβ42 toxicity” value is recorded as “significantly increase cell viability”.
Regarding `CN1CCN(C)CCN(Cc2cc(-c3ccc(/C=C/c4ccc(N(C)C)cc4)s3)cc(CN3CCN(C)CCN(C)CC3)c2O)CC1` [ZY-12-DT, (E)-2,6-bis((4,7-dimethyl-1,4,7-triazonan-1-yl)methyl)-4-(5-(4-(dimethylamino)styryl)thiophen-2-yl)phenol], the Kd turned out to be 1380 ± 240 nM at Aβ42 fibrils (Table 1, amphiphilic compounds) and 670 ± 150 nM at Aβ42 oligomers (Table 1, amphiphilic compounds). Also, the “binding affinity to oligomers compared with fibrils (Kd comparison)” value on Aβ42 oligomers is “higher binding affinity to oligomers over fibrils”. In data set [3], the relative cytotoxicity result is on record as “higher citotoxicity than others”.
For `CN1CCN(C)CCN(Cc2cc(-c3ccc(/C=C/c4ccc(N(C)C)cc4)s3)ccc2O)CC1` [ZY-12-MT, (E)-2-((4,7-dimethyl-1,4,7-triazonan-1-yl)methyl)-4-(5-(4-(dimethylamino)styryl)thiophen-2-yl)phenol], the Kd on Aβ42 fibrils (Table 1, amphiphilic compounds) amounted to 4190 ± 870 nM; on Aβ42 oligomers (Table 1, amphiphilic compounds), 6270 ± 1010 nM. In data set [2], the “effect on cell viability under Cu^2+-Aβ42 toxicity” value is on record as “significantly increase cell viability”.
Take `COc1cc(-c2ccc(/C=C/c3ccc(N(C)C)cc3)s2)cc(CN2CCN(C)CCN(C)CC2)c1O` [ZY-12-OMe, (E)-2-((4,7-dimethyl-1,4,7-triazonan-1-yl)methyl)-4-(5-(4-(dimethylamino)styryl)thiophen-2-yl)-6-methoxyphenol]: the Kd on Aβ42 fibrils (Table 1, amphiphilic compounds) stood at 390 ± 40 nM; at Aβ42 oligomers (Table 1, amphiphilic compounds) it was 320 ± 40 nM. In addition, at Aβ42 oligomers, the “binding affinity to oligomers compared with fibrils (Kd comparison)” value is given as “higher binding affinity to oligomers over fibrils”. In addition, the cell viability result is recorded as “more than 75%” in data set [3] (at 5 μM) and “less than 50%” in data set [3] (at 10 μM). In data set [3], the relative cytotoxicity result is listed as “higher citotoxicity than others”.
`CN1CCN(C)CCN(Cc2cc(/C=C/c3ccc(-c4ccc(C=O)cc4)s3)cc(CN3CCN(C)CCN(C)CC3)c2O)CC1` [ZY-15-DT, (E)-4-(5-(3,5-bis((4,7-dimethyl-1,4,7-triazonan-1-yl)methyl)-4-hydroxystyryl)thiophen-2-yl)benzaldehyde]: the Kd on Aβ42 fibrils (Table 1, amphiphilic compounds) was determined as 1270 ± 100 nM; at Aβ42 oligomers (Table 1, amphiphilic compounds), 4550 ± 320 nM.
For the molecule `COc1cc(OC)cc(-c2ccc(/C=C/c3cc(CN4CCN(C)CCN(C)CC4)c(O)c(CN4CCN(C)CCN(C)CC4)c3)cc2)c1` [ZY-17-DT, (E)-4-(2-(3′,5′-dimethoxy-[1,1′-biphenyl]-4-yl)vinyl)-2,6-bis((4,7-dimethyl-1,4,7-triazonan-1-yl)methyl)phenol], the Kd at Aβ42 fibrils (Table 1, amphiphilic compounds) stood at 2250 ± 460 nM; at Aβ42 oligomers (Table 1, amphiphilic compounds) it was 1030 ± 200 nM. For the same molecule, on Aβ42 oligomers, the “binding affinity to oligomers compared with fibrils (Kd comparison)” value is given as “higher binding affinity to oligomers over fibrils”. Moreover, in data set [3], the relative cytotoxicity result is listed as “higher citotoxicity than others”.
As for `COc1cc(OC)cc(-c2ccc(/C=C/c3ccc(O)c(CN4CCN(C)CCN(C)CC4)c3)cc2)c1` [ZY-17-MT, (E)-4-(2-(3′,5′-dimethoxy-[1,1′-biphenyl]-4-yl)vinyl)-2-((4,7-dimethyl-1,4,7-triazonan-1-yl)methyl)phenol], the Kd at Aβ42 fibrils (Table 1, amphiphilic compounds) was found to be 940 ± 70 nM; at Aβ42 oligomers (Table 1, amphiphilic compounds) it was 2080 ± 340 nM.
For the molecule `COc1cc(OC)cc(-c2ccc(/C=C/c3cc(CN4CCN(C)CCN(C)CC4)c(O)c(OC)c3)cc2)c1` [ZY-17-OMe, (E)-4-(2-(3′,5′-dimethoxy-[1,1′-biphenyl]-4-yl)vinyl)-2-((4,7-dimethyl-1,4,7-triazonan-1-yl)methyl)-6-methoxyphenol], the Kd amounted to 180 ± 20 nM at Aβ42 fibrils (Table 1, amphiphilic compounds) and 120 nM at Aβ42 oligomers (Table 1, amphiphilic compounds). Besides, the “binding affinity to oligomers compared with fibrils (Kd comparison)” value on Aβ42 oligomers is “higher binding affinity to oligomers over fibrils”. In data set [3], the relative cytotoxicity result was “the highest toxicity”.

One may read the Kd as the free concentration of one partner at which half of the binding sites on the other are occupied at equilibrium, for simple one-to-one binding. The logD is lipophilicity at a set pH, counting ionised and neutral species. Read a high logD as higher lipophilicity.
